Earlier results as cited in US20110105453A1, “Superoxide Dismutase Mimics For The Treatment Of Optic Nerve And Retinal Damage” (ALCON, INC., priority 2003, published 2011).

Tests used:
[1] = tested on: light-induced retinal damage in albino rats
[2] = tested on: NADH-coenzyme Q1 reductase; settings: uncouples mitochondrial respiration
cytochrome c oxidase = settings: uncouples mitochondrial respiration
[3] = tested on: rat ocular ischemia-reperfusion model; settings: intravitreal injections (SOD protein)

## CC1(C)CC(O)CC(C)(C)N1[O] [4-hydroxy-2,2,6,6-tetramethylpiperidine-1-oxyl]
[1]
  inhibition of light-induced retinal damage: inhibited light-induced retinal damage

## NCCc1c[nH]c2c1C(=O)C(=O)C=C2 [T-4,5-D, tryptamine 4,5-dione]
[2]
  inhibition of NADH-coenzyme Q1 reductase: irreversible inhibition
Tryptophan hydroxylase
  inactivation of tryptophan hydroxylase: irreversibly inactivates
Cytochrome c oxidase
  inhibition of cytochrome c oxidase: irreversible inhibition

## CNC(=S)NC [dimethylthiourea]
[3]
  functional protection: 40%
